Source: patent US20100041716A1, “[…] USE IN TREATING OR PREVENTING HYPERCHOLESTEROLEMIA” (MITOS PHARMACEUTICALS, INC., priority 2006, published 2010)

How the values were obtained:
[1] = system: farnesyl diphosphate synthase (FDPS); test: Gene expression in white adipose tissue of mice, Affymetrix MOE430A 2.0 microarray; format: in vivo
Method: (§1) In a gene expression study, Tempol was administered to experimental mice at a dose of 5 g/kg of diet from 12 months through 15 months. Mice receiving the same diet without the addition of Tempol were used as a negative control. At the age of 15 months, the white adipose tissue of the experimental animals was obtained. The expression of a broad spectrum of genes in the adipose tissue was assessed using chip-based microarray technology. Specifically, in this case an Affymetrix MOE430A 2.0 array, containing 12,960 genes, was employed. Such chips are well known in the art and are widely used to assess gene expression.

[2] = system: NAD(P) dependent steroid dehydrogenase-like (NSDHL); test: as above; format: in vivo
Method: as §1

[3] = system: lanosterol synthase (LSS); test: as above; format: in vivo
Method: as §1

FDPS = test: Protein level in patient after Tempol treatment; format: in vivo, human; conditions: 1500 mg per day for 180 days
Method: (§2) A 70-kilogram patient having levels of fasting plasma total cholesterol indicative of hypercholesterolemia is administered a dose of 1500 mg of Tempol per day for 180 days. This may be administered in a single dose, or may be administered as a number of smaller doses over a 24-hour period: for example, three 500-mg doses at eight-hour intervals. Following treatment, the protein level of each of LSS, FDPS, and NSDHL is reduced.
as §2, with “at risk for developing” for “having levels of fasting plasma total cholesterol indicative of”

NSDHL = test: Protein level in patient after Tempol treatment; format: in vivo, human; conditions: 1500 mg per day for 180 days
Method: as §2
as §2, with “at risk for developing” for “having levels of fasting plasma total cholesterol indicative of”

LSS = test: Protein level in patient after Tempol treatment; format: in vivo, human; conditions: 1500 mg per day for 180 days
Method: as §2
as §2, with “at risk for developing” for “having levels of fasting plasma total cholesterol indicative of”

[4] = adipose tissue of mice treated with Tempol
[5] = Example 1: 70-kilogram patient with hypercholesterolemia
[6] = Example 2: 70-kilogram patient at risk for hypercholesterolemia

## CC1(C)CC(O)CC(C)(C)N1[O] [Tempol, 4-hydroxy-2,2,6,6-tetramethylpiperidine-1-oxyl]
[1]; FDPS expression, Tempol-treated vs control mice, white adipose tissue
  Fold change: −2.08
[1]; FDPS expression, white adipose tissue, 5 g/kg of diet from 12 through 15 months
  Mean (Tempol-treated mice): 1274
[1]; [4]
  expression of FDPS decreased: 2.08 fold
[2]; NSDHL expression, Tempol-treated vs control mice, white adipose tissue
  Fold change: −1.64
[2]; NSDHL expression, white adipose tissue, 5 g/kg of diet from 12 through 15 months
  Mean (Tempol-treated mice): 1398
[2]; [4]
  expression of NSHDL decreased: 1.64 fold
[3]; LSS expression, Tempol-treated vs control mice, white adipose tissue
  Fold change: −2.33
[3]; LSS expression, white adipose tissue, 5 g/kg of diet from 12 through 15 months
  Mean (Tempol-treated mice): 224
[3]; [4]
  expression of LSS decreased: 2.33 fold
FDPS; [5]
  protein level of FDPS: reduced
FDPS; [6]
  protein level of FDPS: reduced
NSDHL; [5]
  protein level of NSDHL: reduced
NSDHL; [6]
  protein level of NSDHL: reduced
LSS; [5]
  protein level of LSS: reduced
LSS; [6]
  protein level of LSS: reduced
